Reference: US12539296B2, “Montelukast for the treatment of erosive hand osteoarthritis” (MMC INTELLECTUAL PROPERTY INSTITUTE, S.L., priority 2018, dated 2026)

Legend:
[1] = tested on: patient with erosive hand osteoarthritis; assay: Efficacy of topical treatment in one patient with erosive hand osteoarthritis (Example 6); type: in vivo, human; settings: 12 weeks
Protocol: After a wash-up period of several weeks, the patient started treatment with a topical formulation prepared as disclosed in example 3, with a dosage of about 10 mg daily per hand, spread on the affected zone for a period of 12 weeks.

[2] = tested on: patients with erosive hand osteoarthritis; assay: Clinical observational study of oral 10 mg montelukast daily in patients with erosive hand osteoarthritis (Example 4); type: in vivo, human; settings: 10 mg daily oral, 3 to 16 months
Protocol: A preliminary clinical observational study was performed in patients suffering from erosive hand osteoarthritis.
50 patients with erosive hand osteoarthritis which were non-respondent or with limited response after treatment with analgesics and/or anti-inflammatories were selected for the study. The patients were administered 10 mg of montelukast daily by the oral route, using an orally dispersible composition prepared as disclosed in Example 1, according to a once-daily dosage regimen.
The following parameters were used to evaluate the efficacy of the treatment: (i) improvement in clinical symptoms; (ii) efficacy in pain relief; and (iii) improvement in radiological evaluation. All assessments were focused on one of the hands of the patients.
The improvement in clinical symptoms was assessed by evaluating the improvement in symptoms such as functionality, stiffness and deformity of the affected hand that entail an improvement in the quality of life of the patients.
For assessing the efficacy in pain relief, the patients were asked to evaluate the pain they felt using the visual analogue scale (VAS) methodology, both before the treatment and at the end of the treatment period.
For assessing the efficacy of the treatment in the radiological parameters of the hand, the following features in the affected joints were evaluated: a) edema, b) subchondral erosions, c) synovitis and d) tenosynovitis. These features were radiologically assessed by means of posteroanterior radiographs of the hand, performed before and after the treatment period. The treatment was considered to provide radiological improvement if there was observable improvement in at least two of the assessed features and no worsening in the remaining features.

[3] = tested on: patients with erosive hand osteoarthritis; assay: Clinical study of oral 20 mg montelukast daily in patients non-respondent to 10 mg (Example 5); type: in vivo, human
Protocol: For this study, 9 patients were selected from the previous study (Example 4) among those who were non-respondents to the treatment (10 mg montelukast daily).
In the present study, the patients were administered a daily dose of montelukast of 20 mg by the oral route, also using an orally dispersible composition prepared as disclosed in Example 1, according to a once-daily dosage regimen. The age of the patients ranged from 52 to 78 years.
As in the previous study, for assessing the efficacy in pain relief, the visual analogue scale (VAS) methodology was used, where the pain was assessed on a scale of 0 to 10.
For assessing the efficacy in hand functionality improvement, also a visual analogue scale (VAS) of 0 to 10 was also used, wherein 0 meant full functionality, i.e., full ability to hold objects, and 10 meant absence of functionality, i.e., inability to hold any object
The “initial” values mean the values before starting the treatment, and the “final” values mean the values after completing the treatment.

patients aged ≥6 years = settings: for example 200 mg/daily; cited from earlier work
[4] = 20 mg daily oral, beginning vs end of treatment
[5] = topical gel of example 3, about 10 mg daily per hand

For `CCC(=O)O[C@]1(C(=O)COC(C)=O)CC[C@H]2[C@@H]3C[C@H](C)C4=CC(=O)C=C[C@]4(C)[C@H]3[C@@H](O)C[C@@]21C` [methylprednisolone aceponate], the radiological assessment ([1]; topical, once daily) was “progression of the disease” and the “pain score (VAS, 0-10 scale) remaining under treatment” value ([1]; topical, once daily, no improvement in pain relief) was “higher than 5”.

With `CC(C)(O)c1ccccc1CC[C@@H](SCC1(CC(=O)O)CC1)c1cccc(/C=C/c2ccc3ccc(Cl)cc3n2)c1` [montelukast, 2-[1-[[(1R)-1-[3-[(E)-2-(7-chloroquinolin-2-yl)ethenyl]phenyl]-3-[2-(2-hydroxypropan-2-yl)phenyl]propyl]sulfanylmethyl]cyclopropyl]acetic acid] the “additional patients with no worsening of the assessed radiological parameters” value [2] was 10 patients, the “patients with improvement after radiological evaluation (at least two features improved, none worse)” value ([2]; of 50 patients, posteroanterior radiographs) was 28 patients and the “patients reporting effective pain relief (VAS reduction of at least 2 units on 0 to 10 scale)” value ([2]; out of 45 patients with pain before treatment) was 28 patients. The “patients with improvement in edema” value ([2]; radiological evaluation) was 19 patients, the “patients with improvement in erosions” value ([2]; radiological evaluation) was 14 patients and the “patients with improvement in synovitis” value ([2]; radiological evaluation) was 28 patients. The “patients with improvement in tenosynovitis” value ([2]; radiological evaluation) was 18 patients, the “patients with improvement in clinical symptoms (functionality, stiffness, deformity)” value ([2]; once-daily, of 50 patients) was 32 patients and the “proportion of patients not responding to 10 mg daily that showed pain relief” value ([3]; 20 mg daily oral) was roughly 70%. The adverse effects reported ([3]; 20 mg daily oral, 9 patients) was “No adverse effects”, the “improvement in hand functionality” value ([3]; 20 mg daily oral, all patients) was 35% and the “pain relief in the responding patients” value ([3]; 20 mg daily oral, almost 70% of the patients) was 55%. The “final VAS hand functionality score, mean” value [3, 4] was 4.56±0.39, the “final VAS pain score, mean” value [3, 4] was 3.89±0.54 and the “VAS hand functionality final, Min - Max” value ([3]; after completing 20 mg daily oral treatment, individual values) was 3-6. For the same molecule, the “VAS pain final, Min - Max” value ([3]; after completing 20 mg daily oral treatment, individual values, scale 0 to 10) was 1-6, the “VAS hand functionality final, Mean” value ([3]; after completing 20 mg daily oral treatment, scale 0 (full functionality) to 10 (absence)) was 4.56 and the “VAS pain final, Mean” value ([3]; after completing 20 mg daily oral treatment, scale 0 to 10, 9 patients) was 3.89. The “VAS hand functionality initial, Min - Max” value ([3]; before starting 20 mg daily oral treatment (baseline), individual values) was 5-8, the “VAS pain initial, Min - Max” value ([3]; before starting 20 mg daily oral treatment (baseline), individual values, scale 0 to 10) was 5-9 and the “VAS hand functionality initial, Mean” value ([3]; before starting 20 mg daily oral treatment (baseline), scale 0 (full functionality) to 10 (absence)) was 7.00. The “VAS pain initial, Mean” value ([3]; before starting 20 mg daily oral treatment (baseline), scale 0 to 10, 9 patients) was 7.00, the “clinical symptoms of osteoarthritis” value [1, 5] was “improvement in the clinical symptoms” and the pain relief [1, 5] was “significant pain relief”. The “adverse effects at high doses” value (patients aged ≥6 years) was “does not cause adverse effects”.
